Test results from patent US12577227B2, “WDR5 inhibitors and modulators” (Vanderbilt University, priority 2019, dated 2026).

Tested on: MV4:11 human cancer cell lines
Experiment: Cellular viability / anti-proliferative activity (CellTiter-Glo)
Assay type: cell-based
Conditions: MV4-11, 120 h, MV-4-11 cells, 5 day protocol, mean of minimum two replicates, read-out: GI50 on cellular proliferation of MV4:11 human cancer cell lines
Protocol: Cellular Viability of Human Tumor Cell Lines
Anti-Proliferative Activity Using MLL-Harboring Cell Lines.
MV-4-11 and K562 cells are grown in IMDM media supplemented with 10% FBS and […], Molm-13 cells are cultured in RPMI-1640 media supplemented with 10% FBS and 1% o penicillin/streptomycin. Viability assays are performed by dispensing 200 cells at 7200 cells/mL into each well of an opaque 384-well plate and adding compounds at the indicated concentrations in a final volume of 32 μL and a final concentration of DMSO of 0.3% for all samples. A certain range of compound concentrations is made through a series of 2-fold dilutions starting 30 μM at the highest, total 22 dilutions. After a set incubation period, 5 day protocol, the viability of cells in each well is assessed using the CellTiter-Glo assay (Promega), read on a 96 Microplane Luminometer (Cytation 3, BioTek). Serial dilutions of each cell type are performed in all assays to generate standard curves and the final densities of cells are determined within the dynamic range of the instrument. GI50 values are calculated based on XLfit software (IDBS, Guildford, UK) with Sigmoidal Dose-Response Model. Each compound is tested in minimum of two replicates. Data are expressed as mean.

| SMILES | GI50 [µM] |
| --- | --- |
| Cc1cc(C)nc(CN2CCOc3c(cc(Cn4ccnc4C)cc3-c3cc(Cl)ccc3C)C2=O)c1 [Example 52, 9-(5-Chloro-2-methylphenyl)-4-((4,6-dimethylpyridin-2-yl)methyl)-7-((2-methyl-1H-imidazol-1-yl)methyl)-3,4-dihydrobenzo[f][1,4]oxazepin-5(2H)-one] | 0.063 |
| COc1ccnc([C@H](C)N2CCOc3c(cc(Cn4cnn(C)c4=N)cc3-c3cn(C)nc3C(F)(F)F)C2=O)c1 [Example 53, (S)-7-((5-Imino-1-methyl-1,5-dihydro-4H-1,2,4-triazol-4-yl)methyl)-4-(1-(4-methoxypyridin-2-yl)ethyl)-9-(1-methyl-3-(trifluoromethyl)-1H-pyrazol-4-yl)-3,4-dihydrobenzo[f][1,4]oxazepin-5(2H)-one] | 0.067 |
| COc1ccnc([C@H](C)N2CCOc3c(cc(Cn4cnn(C)c4=N)cc3-c3ccc(F)cc3Cl)C2=O)c1 [Example 54, (S)-9-(2-Chloro-4-fluorophenyl)-7-((5-imino-1-methyl-1,5-dihydro-4H-1,2,4-triazol-4-yl)methyl)-4-(1-(4-methoxypyridin-2-yl)ethyl)-3,4-dihydrobenzo[f][1,4]oxazepin-5(2H)-one] | 0.009 |
| COc1ccnc(Cn2cnc3c(-c4cn(C)nc4C(F)(F)F)cc(Cn4ccnc4C)cc3c2=O)c1 [Example 55, 3-((4-Methoxypyridin-2-yl)methyl)-6-((2-methyl-1H-imidazol-1-yl)methyl)-8-(1-methyl-3-(trifluoromethyl)-1H-pyrazol-4-yl)quinazolin-4(3H)-one] | 0.57 |
| COc1ccnc([C@H](C)N2CCOc3c(cc(Cn4ccnc4C)cc3-c3cc(C)ccc3C)C2=O)c1 [Example 56, (S)-9-(2,5-Dimethylphenyl)-4-(1-(4-methoxypyridin-2-yl)ethyl)-7-((2-methyl-1H-imidazol-1-yl)methyl)-3,4-dihydrobenzo[f][1,4]oxazepin-5(2H)-one] | 0.037 |
| COc1ccc2c(c1)C(N1CCOc3c(cc(Cn4ccnc4C)cc3-c3cn(C)nc3C(F)(F)F)C1=O)CCC2 (stereo not shown) [Example 57, 4-(7-Methoxy-1,2,3,4-tetrahydronaphthalen-1-yl)-7-((2-methyl-1H-imidazol-1-yl)methyl)-9-(1-methyl-3-(trifluoromethyl)-1H-pyrazol-4-yl)-3,4-dihydrobenzo[f][1,4]oxazepin-5(2H)-one] | 0.029 |
| COc1ccc2nccc(N3CCOc4c(cc(Cn5ccnc5C)cc4-c4cn(C)nc4C(F)(F)F)C3=O)c2c1 [Example 58, 4-(6-Methoxyquinolin-4-yl)-7-((2-methyl-1H-imidazol-1-yl)methyl)-9-(1-methyl-3-(trifluoromethyl)-1H-pyrazol-4-yl)-3,4-dihydrobenzo[f][1,4]oxazepin-5(2H)-one] | 0.077 |
| CCn1cc(-c2cc(Cn3ccnc3)cc3c2OCCN([C@H](c2cc(OC)ccn2)C2CC2)C3=O)c(C(F)(F)F)n1 [Example 59, (S)-7-((1H-Imidazol-1-yl)methyl)-4-(cyclopropyl(4-methoxypyridin-2-yl)methyl)-9-(1-ethyl-3-(trifluoromethyl)-1H-pyrazol-4-yl)-3,4-dihydrobenzo[f][1,4]oxazepin-5(2H)-one] | 0.108 |
| CCn1cc(-c2cc(Cn3ccnc3C)cc3c2OCCN([C@H](c2cc(OC)ccn2)C2CC2)C3=O)c(C(F)(F)F)n1 [Example 60, (S)-4-(Cyclopropyl(4-methoxypyridin-2-yl)methyl)-9-(1-ethyl-3-(trifluoromethyl)-1H-pyrazol-4-yl)-7-((2-methyl-1H-imidazol-1-yl)methyl)-3,4-dihydrobenzo[f][1,4]oxazepin-5(2H)-one] | 0.111 |
| CCc1nccn1Cc1cc2c(c(-c3cn(CC)nc3C(F)(F)F)c1)OCCN([C@H](c1cc(OC)ccn1)C1CC1)C2=O [Example 61, (S)-4-(Cyclopropyl(4-methoxypyridin-2-yl)methyl)-7-((2-ethyl-1H-imidazol-1-yl)methyl)-9-(1-ethyl-3-(trifluoromethyl)-1H-pyrazol-4-yl)-3,4-dihydrobenzo[f][1,4]oxazepin-5(2H)-one] | 0.158 |
| CCn1cc(-c2cc(Cn3ccnc3)cc3c(=O)n([C@H](c4cc(OC)ccn4)C4CC4)cnc23)c(C(F)(F)F)n1 [Example 62, (S)-6-((1H-imidazol-1-yl)methyl)-3-(cyclopropyl(4-methoxypyridin-2-yl)methyl)-8-(1-ethyl-3-(trifluoromethyl)-1H-pyrazol-4-yl)quinazolin-4(3H)-one] | 1.38 |
| CCn1cc(-c2cc(Cn3ccnc3)cc3c2OCCN([C@H]2CCOc4ccc(OC)cc42)C3=O)c(C(F)(F)F)n1 [Example 63, (S)-7-((1H-imidazol-1-yl)methyl)-9-(1-ethyl-3-(trifluoromethyl)-1H-pyrazol-4-yl)-4-(6-methoxychroman-4-yl)-3,4-dihydrobenzo[f][1,4]oxazepin-5(2H)-one] | 0.07 |
| CCn1cc(-c2cc(Cn3ccnc3C)cc3c2OCCN([C@H]2CCOc4ccc(OC)cc42)C3=O)c(C(F)(F)F)n1 [Example 64, (S)-9-(1-ethyl-3-(trifluoromethyl)-1H-pyrazol-4-yl)-4-(6-methoxychroman-4-yl)-7-((2-methyl-1H-imidazol-1-yl)methyl)-3,4-dihydrobenzo[f][1,4]oxazepin-5(2H)-one] | 0.039 |
| CCn1cc(-c2cc(Cn3ccnc3)cc3c2NC(=O)CN([C@H](c2cc(OC)ccn2)C2CC2)C3=O)c(C(F)(F)F)n1 [Example 65, (S)-7-((1H-imidazol-1-yl)methyl)-4-(cyclopropyl(4-methoxypyridin-2-yl)methyl)-9-(1-ethyl-3-(trifluoromethyl)-1H-pyrazol-4-yl)-3,4-dihydro-1H-benzo[e][1,4]diazepine-2,5-dione] | 0.29 |
| CCOC(=O)c1cc(CC)cc2c(N3CCOc4c(cc(Cn5ccnc5)cc4-c4cn(C)nc4C(F)(F)F)C3=O)ccnc12 [Example 66, Ethyl 4-(7-((1H-imidazol-1-yl)methyl)-9-(1-methyl-3-(trifluoromethyl)-1H-pyrazol-4-yl)-5-oxo-2,3-dihydrobenzo[f][1,4]oxazepin-4(5H)-yl)-6-ethylquinoline-8-carboxylate] | 0.772 |
| CCc1cc(OC)c2nccc(N3CCOc4c(cc(Cn5ccnc5)cc4-c4cn(C)nc4C(F)(F)F)C3=O)c2c1 [Example 67, 7-((1H-imidazol-1-yl)methyl)-4-(6-ethyl-8-methoxyquinolin-4-yl)-9-(1-methyl-3-(trifluoromethyl)-1H-pyrazol-4-yl)-3,4-dihydrobenzo[f][1,4]oxazepin-5(2H)-one] | 0.321 |
| COc1ccc2nc(C)cc(N3CCOc4c(cc(Cn5ccnc5)cc4-c4cn(C)nc4C(F)(F)F)C3=O)c2c1 [Example 68, 7-((1H-imidazol-1-yl)methyl)-4-(6-methoxy-2-methylquinolin-4-yl)-9-(1-methyl-3-(trifluoromethyl)-1H-pyrazol-4-yl)-3,4-dihydrobenzo[f][1,4]oxazepin-5(2H)-one] | 0.1 |
| COc1cc(OC)c2nc(C)cc(N3CCOc4c(cc(Cn5ccnc5)cc4-c4cn(C)nc4C(F)(F)F)C3=O)c2c1 [Example 69, 7-((1H-imidazol-1-yl)methyl)-4-(6,8-dimethoxy-2-methylquinolin-4-yl)-9-(1-methyl-3-(trifluoromethyl)-1H-pyrazol-4-yl)-3,4-dihydrobenzo[f][1,4]oxazepin-5(2H)-one] | 0.039 |
| COc1cnc2cccc(N3CCOc4c(cc(Cn5ccnc5)cc4-c4cn(C)nc4C(F)(F)F)C3=O)c2c1 [Example 70, 7-((1H-imidazol-1-yl)methyl)-4-(3-methoxyquinolin-5-yl)-9-(1-methyl-3-(trifluoromethyl)-1H-pyrazol-4-yl)-3,4-dihydrobenzo[f][1,4]oxazepin-5(2H)-one] | 0.306 |
| CCc1cc(C(=O)NC)c2nccc(N3CCOc4c(cc(Cn5ccnc5)cc4-c4cn(C)nc4C(F)(F)F)C3=O)c2c1 [Example 72, 4-(7-((1H-imidazol-1-yl)methyl)-9-(1-methyl-3-(trifluoromethyl)-1H-pyrazol-4-yl)-5-oxo-2,3-dihydrobenzo[f][1,4]oxazepin-4(5H)-yl)-6-ethyl-N-methylquinoline-8-carboxamide] | 0.494 |
| CCc1cc(C(=O)NCCN(C)C)c2nccc(N3CCOc4c(cc(Cn5ccnc5)cc4-c4cn(C)nc4C(F)(F)F)C3=O)c2c1 [Example 73, 4-(7-((1H-imidazol-1-yl)methyl)-9-(1-methyl-3-(trifluoromethyl)-1H-pyrazol-4-yl)-5-oxo-2,3-dihydrobenzo[f][1,4]oxazepin-4(5H)-yl)-N-(2-(dimethylamino)ethyl)-6-ethylquinoline-8-carboxamide] | 0.255 |
| CCc1cc(C(=O)NCCOC)c2nccc(N3CCOc4c(cc(Cn5ccnc5)cc4-c4cn(C)nc4C(F)(F)F)C3=O)c2c1 [Example 74, 4-(7-((1H-imidazol-1-yl)methyl)-9-(1-methyl-3-(trifluoromethyl)-1H-pyrazol-4-yl)-5-oxo-2,3-dihydrobenzo[f][1,4]oxazepin-4(5H)-yl)-6-ethyl-N-(2-methoxyethyl)quinoline-8-carboxamide] | 0.458 |
